Measurements as given in patent US11357737B2, “Chitosan nanofibers containing bioactive compounds” (FUNDACION COPEC UNIVERSIDAD CATÓLICA, priority 2015, dated 2022).

How the values were obtained:
[1] = in vitro; settings: rat
Text: Brains were used from 18-day rat embryos. The extracted hippocampi were placed in modified Hanks saline solution (mHBSS, for its name in English: Hank's buffer salt solution) and washed three times to then add trypsin (0.25%). After this treatment, the hippocampi were washed with mHBSS and transferred to a MEM medium (Minimum Essential Medium) supplemented with 10% horse serum (HS), disintegrating with Pasteur pipette. The cell suspension was collected by low speed centrifugation (2000×g×20 s) at room temperature. The supernatant was saved and the pellet was broken up again with a very fine tip Pasteur pipette. Another centrifugation was performed at low speed (2000×g×20 s) at room temperature. The supernatant containing the cells in suspension was pooled with the above supernatant and the viable cells were counted using Trypan blue (0.2%). Subsequently, the neurons were seeded in culture plates in MEM supplemented with 10% HS. After the hippocampal neurons adhered to the plaque, they were exchanged for medium with a Neurobasal medium with the culture supplement B27, remaining in culture for fourteen days.
Initially, the percentage of cellular viability of said hippocampal neurons exposed to different concentrations of hydrogen peroxide was evaluated. (10, 50, 100, 200, 500 μM) during 1 h. Hydrogen peroxide (H2O2) under biological conditions, it is a highly oxidizing compound.

[2] = Neuroprotection against oxidative damage by H2O2 in hippocampal cultures (neuronal viability); format: cell-based; settings: rat, primary hippocampal neurons from 18-day rat embryos; 50 μM H2O2 for 1 h, vehicle pre-incubation, 24 h after exposure; read-out: cell viability in the control condition (vehicle) after H2O2
Experimental: Brains were used from 18-day rat embryos.
The hippocampal neurons of rat obtained in point 2.1 were used to evaluate the neuroprotective effect of the nanofibers of the invention.
The neuroprotective effect of the antioxidant mixture (AOX) was evaluated, for which the neurons obtained in point 2.1 were incubated for 24 hours in a medium supplemented with the mixture of antioxidants obtained in Example 1.1. Neuronal viability was compared to control (incubated with the vehicle without antioxidants) at concentrations of 0.001, 1, 10, 100, 150 and 200 μM of AOX, before and after the exposure of crops to a concentration of 50 μM of H2O2, during 1 h of incubation.
The neuroprotective effect of the nanofibers of the invention (NF) was evaluated, for which the neurons obtained in point 2.1 were incubated for 24 hours in a medium supplemented with the nanofibers of the invention obtained in Example 1.2. The neuronal viability compared to the control (incubated with the vehicle without nanofibers) was compared with nanofibers containing concentrations of 0.001, 1, 10, 100, 150 and 200 μM of AOX, before and after the exposure of crops to a concentration of 50 μM of H2O2, during 1 hour of incubation.

**Q.** Which viability at 1 h, 10 μM [1] does the source give for OO [H2O2, Hydrogen peroxide] here?
**A.** 69.5%

**Q.** And the viability at 1 h, 50 μM [1]?
**A.** 44.3%

**Q.** What about the viability at 1 h, 100 μM [1] of the same compound?
**A.** 29.1%

**Q.** What about the viability at 1 h, 200 μM [1] of the same compound?
**A.** 19.6%

**Q.** What about the viability at 1 h, 500 μM [1] of the same compound?
**A.** 15.8%

**Q.** And the viability at 1 h, 50 μM [2]?
**A.** < 50%
